Laboratory results from patent publication US10227344B2, “CK2 inhibitors, compositions and methods thereof” (Polaris Pharmaceuticals, Inc., priority 2016, dated 2019).

Assays:
Format in all cases: cell-based
LnCap = assay: Cancer cell panel, cell viability (resazurin): Prostate, LnCap; settings: 72 hours, labelled drug combined with Example 3
Protocol: (§1) Cells were plated in 96-well plates and treated for 72 hours with a serially diluted CK2 inhibitor or anti-cancer drug or their combination. The suspension cell lines were treated right after plating, while the adherent cells were allowed to attach overnight prior to the start of the treatment.
(§2) Cell viability was determined by adding resazurin to cell cultures and measuring fluorescence with a plate reader. Relative cell viability was calculated by dividing the cell viability signal from a test sample by that of a non-treated control. […] Bliss Independence and Highest Single Agent models were used to determine if there is synergy, additivity or antagonism between the CK2 inhibitor and an anti-cancer drug.

A2780 = assay: Cancer cell panel, cell viability (resazurin): Ovarian, A2780; settings: 72 hours, labelled drug combined with Example 3
Caov-3 = assay: Cancer cell panel, cell viability (resazurin): Ovarian, Caov-3; settings: Caov-3 (Ovarian), 72 hours; labelled drug combined with Example 3
Protocol: as §1, §2

HCT116 = assay: Cancer cell panel, cell viability (resazurin): Colon, HCT116; settings: 72 hours, labelled drug combined with Example 3
Protocol: as §1, §2

LoVo = assay: Cancer cell panel, cell viability (resazurin): Colon, LoVo; settings: 72 hours, labelled drug combined with Example 3
DLD-1 = assay: Cancer cell panel, cell viability (resazurin): Colon, DLD-1; settings: DLD-1 (Colon), 72 hours; labelled drug combined with Example 3
H460 = assay: Cancer cell panel, cell viability (resazurin): NSCLC, H460; settings: 72 hours, labelled drug combined with Example 3
Protocol: as §1, §2

H1975 = assay: Cancer cell panel, cell viability (resazurin): NSCLC, H1975; settings: 72 hours, labelled drug combined with Example 3
H23 = assay: Cancer cell panel, cell viability (resazurin): NSCLC, H23; settings: 72 hours, labelled drug combined with Example 3
Protocol: as §1, §2

H2122 = assay: Cancer cell panel, cell viability (resazurin): NSCLC, H2122; settings: 72 hours, labelled drug combined with Example 3
Protocol: as §1, §2

MDA-MB-453 = assay: Cancer cell panel, cell viability (resazurin): Breast, MDA-MB-453; settings: MDA-MB-453 (Breast), 72 hours; labelled drug combined with Example 3
Protocol: as §1, §2

MDA-MB-231 = assay: Cancer cell panel, cell viability (resazurin): Breast, MDA-MB-231; settings: MDA-MB-231 (Breast), 72 hours; labelled drug combined with Example 3
MDA-MB-157 = assay: Cancer cell panel, cell viability (resazurin): Breast, MDA-MB-157; settings: MDA-MB-157 (Breast), 72 hours; labelled drug combined with Example 3
Protocol: as §1, §2

BT-474 = assay: Cancer cell panel, cell viability (resazurin): Breast, BT-474; settings: BT-474 (Breast), 72 hours; labelled drug combined with Example 3
Protocol: as §1, §2

T47D = assay: Cancer cell panel, cell viability (resazurin): Breast, T47D; settings: 72 hours, labelled drug combined with Example 3
786-O = assay: Cancer cell panel, cell viability (resazurin): Renal, 786-O; settings: 786-O (Renal), 72 hours; labelled drug combined with Example 3
Protocol: as §1, §2

ACHN = assay: Cancer cell panel, cell viability (resazurin): Renal, ACHN; settings: 72 hours, labelled drug combined with Example 3
Protocol: as §1, §2

Caki-1 = assay: Cancer cell panel, cell viability (resazurin): Renal, Caki-1; settings: Caki-1 (Renal), 72 hours; labelled drug combined with Example 3
SK-MEL-24 = assay: Cancer cell panel, cell viability (resazurin): Melanoma, SK-MEL-24; settings: SK-MEL-24 (Melanoma), 72 hours; labelled drug combined with Example 3
WM-115 = assay: Cancer cell panel, cell viability (resazurin): Melanoma, WM-115; settings: WM-115 (Melanoma), 72 hours; labelled drug combined with Example 3
Protocol: as §1, §2

MeWO = assay: Cancer cell panel, cell viability (resazurin): Melanoma, MeWO; settings: 72 hours, labelled drug combined with Example 3
Protocol: as §1, §2

U266 = assay: Cancer cell panel, cell viability (resazurin): multiple myeloma, U266; settings: 72 hours, labelled drug combined with Example 3
RPMI8226 = assay: Cancer cell panel, cell viability (resazurin): multiple myeloma, RPMI8226; settings: 72 hours, labelled drug combined with Example 3
U87MG = assay: Cancer cell panel, cell viability (resazurin): Glioblastoma, U87MG; settings: 72 hours, labelled drug combined with Example 3
Ramos = assay: Cancer cell panel, cell viability (resazurin): Burkitt's Lymphoma, Ramos; settings: 72 hours, labelled drug combined with Example 3
Protocol: as §1, §2

Raji = assay: Cancer cell panel, cell viability (resazurin): Burkitt's Lymphoma, Raji; settings: 72 hours, labelled drug combined with Example 3
HL60 = assay: Cancer cell panel, cell viability (resazurin): Leukemia, HL60; settings: 72 hours, labelled drug combined with Example 3
Protocol: as §1, §2

EOL-1 = assay: Cancer cell panel, cell viability (resazurin): Leukemia, EOL-1; settings: EOL-1 (Leukemia), 72 hours; labelled drug combined with Example 3
MOLT4 = assay: Cancer cell panel, cell viability (resazurin): Leukemia, MOLT4; settings: 72 hours, labelled drug combined with Example 3

O=c1[nH]cc(F)c(=O)[nH]1 [Example 5FU, 5-FU]
synergy, additivity or antagonism of the combination of Example 3 with the anti-cancer drug (LnCap): + (Additive relative to each agent alone (CI = 0.9-1 by Bliss Independence Model and <0.9 by Highest Single Agent Model)) | synergy, additivity or antagonism of the combination of Example 3 with the anti-cancer drug (A2780): + + (Slight synergy relative to each agent alone (CI = 0.75-0.9 by Bliss Independence Model)) | synergy, additivity or antagonism of the combination of Example 3 with the anti-cancer drug (Caov-3): + (Additive relative to each agent alone (CI = 0.9-1 by Bliss Independence Model and <0.9 by Highest Single Agent Model)) | synergy, additivity or antagonism of the combination of Example 3 with the anti-cancer drug (HCT116): + + (Slight synergy relative to each agent alone (CI = 0.75-0.9 by Bliss Independence Model)) | synergy, additivity or antagonism of the combination of Example 3 with the anti-cancer drug (LoVo): + (Additive relative to each agent alone (CI = 0.9-1 by Bliss Independence Model and <0.9 by Highest Single Agent Model)) | synergy, additivity or antagonism of the combination of Example 3 with the anti-cancer drug (DLD-1): + (Additive relative to each agent alone (CI = 0.9-1 by Bliss Independence Model and <0.9 by Highest Single Agent Model)) | synergy, additivity or antagonism of the combination of Example 3 with the anti-cancer drug (H460): + + + (Synergy relative to each agent alone (CI = 0.4-0.74 by Bliss Independence Model)) | synergy, additivity or antagonism of the combination of Example 3 with the anti-cancer drug (H1975): − − (Antagonistic relative to each agent alone (CI = 1.2-1.49 by Highest Single Agent Model)) | synergy, additivity or antagonism of the combination of Example 3 with the anti-cancer drug (H23): + (Additive relative to each agent alone (CI = 0.9-1 by Bliss Independence Model and <0.9 by Highest Single Agent Model)) | synergy, additivity or antagonism of the combination of Example 3 with the anti-cancer drug (H2122): + (Additive relative to each agent alone (CI = 0.9-1 by Bliss Independence Model and <0.9 by Highest Single Agent Model)) | synergy, additivity or antagonism of the combination of Example 3 with the anti-cancer drug (MDA-MB-453): + (Additive relative to each agent alone (CI = 0.9-1 by Bliss Independence Model and <0.9 by Highest Single Agent Model)) | synergy, additivity or antagonism of the combination of Example 3 with the anti-cancer drug (MDA-MB-231): + (Additive relative to each agent alone (CI = 0.9-1 by Bliss Independence Model and <0.9 by Highest Single Agent Model)) | synergy, additivity or antagonism of the combination of Example 3 with the anti-cancer drug (MDA-MB-157): + + (Slight synergy relative to each agent alone (CI = 0.75-0.9 by Bliss Independence Model)) | synergy, additivity or antagonism of the combination of Example 3 with the anti-cancer drug (BT-474): + (Additive relative to each agent alone (CI = 0.9-1 by Bliss Independence Model and <0.9 by Highest Single Agent Model)) | synergy, additivity or antagonism of the combination of Example 3 with the anti-cancer drug (T47D): + (Additive relative to each agent alone (CI = 0.9-1 by Bliss Independence Model and <0.9 by Highest Single Agent Model)) | synergy, additivity or antagonism of the combination of Example 3 with the anti-cancer drug (786-O): + + + (Synergy relative to each agent alone (CI = 0.4-0.74 by Bliss Independence Model)) | synergy, additivity or antagonism of the combination of Example 3 with the anti-cancer drug (ACHN): + (Additive relative to each agent alone (CI = 0.9-1 by Bliss Independence Model and <0.9 by Highest Single Agent Model)) | synergy, additivity or antagonism of the combination of Example 3 with the anti-cancer drug (Caki-1): + (Additive relative to each agent alone (CI = 0.9-1 by Bliss Independence Model and <0.9 by Highest Single Agent Model)) | synergy, additivity or antagonism of the combination of Example 3 with the anti-cancer drug (SK-MEL-24): + (Additive relative to each agent alone (CI = 0.9-1 by Bliss Independence Model and <0.9 by Highest Single Agent Model)) | synergy, additivity or antagonism of the combination of Example 3 with the anti-cancer drug (WM-115): + (Additive relative to each agent alone (CI = 0.9-1 by Bliss Independence Model and <0.9 by Highest Single Agent Model)) | synergy, additivity or antagonism of the combination of Example 3 with the anti-cancer drug (MeWO): − (Slightly antagonistic relative to each agent alone (CI = 1.1-1.2 by Highest Single Agent Model)) | synergy, additivity or antagonism of the combination of Example 3 with the anti-cancer drug (U266): + (Additive relative to each agent alone (CI = 0.9-1 by Bliss Independence Model and <0.9 by Highest Single Agent Model)) | synergy, additivity or antagonism of the combination of Example 3 with the anti-cancer drug (RPMI8226): + (Additive relative to each agent alone (CI = 0.9-1 by Bliss Independence Model and <0.9 by Highest Single Agent Model)) | synergy, additivity or antagonism of the combination of Example 3 with the anti-cancer drug (U87MG): + (Additive relative to each agent alone (CI = 0.9-1 by Bliss Independence Model and <0.9 by Highest Single Agent Model)) | synergy, additivity or antagonism of the combination of Example 3 with the anti-cancer drug (Ramos): + + (Slight synergy relative to each agent alone (CI = 0.75-0.9 by Bliss Independence Model)) | synergy, additivity or antagonism of the combination of Example 3 with the anti-cancer drug (Raji): + (Additive relative to each agent alone (CI = 0.9-1 by Bliss Independence Model and <0.9 by Highest Single Agent Model)) | synergy, additivity or antagonism of the combination of Example 3 with the anti-cancer drug (HL60): + (Additive relative to each agent alone (CI = 0.9-1 by Bliss Independence Model and <0.9 by Highest Single Agent Model)) | synergy, additivity or antagonism of the combination of Example 3 with the anti-cancer drug (EOL-1): + (Additive relative to each agent alone (CI = 0.9-1 by Bliss Independence Model and <0.9 by Highest Single Agent Model)) | synergy, additivity or antagonism of the combination of Example 3 with the anti-cancer drug (MOLT4): + + (Slight synergy relative to each agent alone (CI = 0.75-0.9 by Bliss Independence Model))
